ChEMBL document CHEMBL2163215, “Mitigating hERG Inhibition: Design of Orally Bioavailable CCR5 Antagonists as Potent Inhibitors of R5 HIV-1 Replication” (ACS Med Chem Lett, 2012)
Calls of active or inactive are those of the source. The rule behind the calls is not given here.

How the values were obtained:
[1] = system: Human immunodeficiency virus 1; test: Antiviral activity against R5 tropic HIV1 Ba-L infected human PBMC assessed as inhibition of viral replication by p-24 antigen specific ELISA; format: functional, organism-based; details: Human immunodeficiency virus 1, Ba-L
[2] = target: T1, C-C chemokine receptor type 1 (Homo sapiens) (UniProt P32246); details: at 5 µM
T1 sequence (whole entry): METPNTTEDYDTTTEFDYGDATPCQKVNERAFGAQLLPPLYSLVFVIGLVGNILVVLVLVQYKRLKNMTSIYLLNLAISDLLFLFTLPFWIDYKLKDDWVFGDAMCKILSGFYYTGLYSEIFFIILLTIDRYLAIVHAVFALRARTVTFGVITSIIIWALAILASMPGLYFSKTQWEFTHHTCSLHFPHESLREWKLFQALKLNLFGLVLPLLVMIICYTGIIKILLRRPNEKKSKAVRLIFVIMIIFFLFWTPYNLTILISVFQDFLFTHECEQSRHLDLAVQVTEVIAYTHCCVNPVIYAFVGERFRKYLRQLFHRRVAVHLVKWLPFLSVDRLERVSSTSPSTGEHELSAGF
Description: Antagonist activity at CCR1 at 5 uM by calcium flux assay

[3] = target: T2, C-X-C chemokine receptor type 2 (Homo sapiens) (UniProt P25025); details: at 5 µM
T2 sequence (whole entry): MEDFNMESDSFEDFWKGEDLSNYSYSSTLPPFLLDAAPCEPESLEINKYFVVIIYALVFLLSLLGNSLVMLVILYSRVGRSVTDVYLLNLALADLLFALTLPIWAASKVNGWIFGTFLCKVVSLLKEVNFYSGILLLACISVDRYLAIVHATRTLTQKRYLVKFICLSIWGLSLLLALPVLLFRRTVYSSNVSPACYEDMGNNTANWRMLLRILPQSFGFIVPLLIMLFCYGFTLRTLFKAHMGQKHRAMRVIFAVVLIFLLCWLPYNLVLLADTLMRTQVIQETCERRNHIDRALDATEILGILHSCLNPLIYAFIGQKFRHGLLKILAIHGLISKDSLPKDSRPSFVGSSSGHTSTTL
Description: Antagonist activity at CXCR2 at 5 uM by calcium flux assay

[4] = target: C-X-C chemokine receptor type 4 (Homo sapiens) (UniProt P61073); details: at 5 µM
C-X-C chemokine receptor type 4 (Homo sapiens), sequence (P61073 whole entry): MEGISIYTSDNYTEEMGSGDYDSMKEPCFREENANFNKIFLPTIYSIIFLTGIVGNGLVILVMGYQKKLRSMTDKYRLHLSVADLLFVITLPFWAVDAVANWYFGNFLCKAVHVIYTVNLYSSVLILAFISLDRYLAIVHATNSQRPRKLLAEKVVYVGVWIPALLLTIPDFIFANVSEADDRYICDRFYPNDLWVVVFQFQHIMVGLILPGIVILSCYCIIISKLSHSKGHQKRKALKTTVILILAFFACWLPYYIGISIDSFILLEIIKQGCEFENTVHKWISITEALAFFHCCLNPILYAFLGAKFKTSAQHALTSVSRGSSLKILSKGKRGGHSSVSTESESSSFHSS
Description: Antagonist activity at CXCR4 at 5 uM by calcium flux assay

[5] = target: T3, C-C chemokine receptor type 4 (Homo sapiens) (UniProt P51679); details: at 5 µM
T3 sequence (whole entry): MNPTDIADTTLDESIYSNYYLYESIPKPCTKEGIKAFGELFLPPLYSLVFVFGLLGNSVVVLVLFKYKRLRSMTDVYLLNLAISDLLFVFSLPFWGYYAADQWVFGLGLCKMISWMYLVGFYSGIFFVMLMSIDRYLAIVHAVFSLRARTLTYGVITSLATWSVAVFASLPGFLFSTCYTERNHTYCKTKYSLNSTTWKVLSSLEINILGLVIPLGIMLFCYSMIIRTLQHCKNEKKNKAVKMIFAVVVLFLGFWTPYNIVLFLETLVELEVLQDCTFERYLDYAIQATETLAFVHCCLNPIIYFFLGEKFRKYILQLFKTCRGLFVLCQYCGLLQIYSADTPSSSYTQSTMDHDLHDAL
Description: Antagonist activity at CCR4 at 5 uM by calcium flux assay

[6] = target: C-C chemokine receptor type 2 (Homo sapiens) (UniProt P41597); details: at 5 µM
C-C chemokine receptor type 2 (Homo sapiens), sequence (P41597 whole entry, looked up): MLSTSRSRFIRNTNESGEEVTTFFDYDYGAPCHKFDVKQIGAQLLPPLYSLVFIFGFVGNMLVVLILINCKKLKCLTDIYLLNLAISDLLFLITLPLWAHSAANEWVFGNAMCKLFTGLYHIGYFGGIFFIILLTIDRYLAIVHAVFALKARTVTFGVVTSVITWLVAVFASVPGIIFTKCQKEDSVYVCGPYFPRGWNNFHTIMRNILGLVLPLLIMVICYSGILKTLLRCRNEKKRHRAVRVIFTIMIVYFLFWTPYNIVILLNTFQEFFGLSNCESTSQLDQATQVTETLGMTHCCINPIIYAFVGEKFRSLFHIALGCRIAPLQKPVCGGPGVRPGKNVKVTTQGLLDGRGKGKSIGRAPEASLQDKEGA
Description: Antagonist activity at CCR2b at 5 uM by calcium flux assay

[7] = target: T4, C-X-C chemokine receptor type 1 (Homo sapiens) (UniProt P25024); details: at 5 µM
T4 sequence (whole entry): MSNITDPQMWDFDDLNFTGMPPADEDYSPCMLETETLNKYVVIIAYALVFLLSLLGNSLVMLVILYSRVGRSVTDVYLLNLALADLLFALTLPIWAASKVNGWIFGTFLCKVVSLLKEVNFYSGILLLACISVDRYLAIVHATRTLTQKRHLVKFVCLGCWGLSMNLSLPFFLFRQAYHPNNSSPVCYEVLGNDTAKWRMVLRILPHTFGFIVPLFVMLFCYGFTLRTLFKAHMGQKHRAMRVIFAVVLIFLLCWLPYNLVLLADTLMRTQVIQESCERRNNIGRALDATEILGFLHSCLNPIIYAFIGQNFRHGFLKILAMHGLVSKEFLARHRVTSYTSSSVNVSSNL
Description: Antagonist activity at CXCR1 at 5 uM by calcium flux assay

[8] = (§1) Fraction unbound in human plasma after 5 hrs
[9] = Cytotoxicity against human PBMC
[10] = target: hERG (KCNH2) (Homo sapiens, UniProt Q12809); test: Inhibition of human recombinant hERG expressed in CHO cells at 10 uM by automated patch clamp assay; details: CHO cells expressing human recombinant hERG
hERG (KCNH2), sequence (Q12809 whole entry): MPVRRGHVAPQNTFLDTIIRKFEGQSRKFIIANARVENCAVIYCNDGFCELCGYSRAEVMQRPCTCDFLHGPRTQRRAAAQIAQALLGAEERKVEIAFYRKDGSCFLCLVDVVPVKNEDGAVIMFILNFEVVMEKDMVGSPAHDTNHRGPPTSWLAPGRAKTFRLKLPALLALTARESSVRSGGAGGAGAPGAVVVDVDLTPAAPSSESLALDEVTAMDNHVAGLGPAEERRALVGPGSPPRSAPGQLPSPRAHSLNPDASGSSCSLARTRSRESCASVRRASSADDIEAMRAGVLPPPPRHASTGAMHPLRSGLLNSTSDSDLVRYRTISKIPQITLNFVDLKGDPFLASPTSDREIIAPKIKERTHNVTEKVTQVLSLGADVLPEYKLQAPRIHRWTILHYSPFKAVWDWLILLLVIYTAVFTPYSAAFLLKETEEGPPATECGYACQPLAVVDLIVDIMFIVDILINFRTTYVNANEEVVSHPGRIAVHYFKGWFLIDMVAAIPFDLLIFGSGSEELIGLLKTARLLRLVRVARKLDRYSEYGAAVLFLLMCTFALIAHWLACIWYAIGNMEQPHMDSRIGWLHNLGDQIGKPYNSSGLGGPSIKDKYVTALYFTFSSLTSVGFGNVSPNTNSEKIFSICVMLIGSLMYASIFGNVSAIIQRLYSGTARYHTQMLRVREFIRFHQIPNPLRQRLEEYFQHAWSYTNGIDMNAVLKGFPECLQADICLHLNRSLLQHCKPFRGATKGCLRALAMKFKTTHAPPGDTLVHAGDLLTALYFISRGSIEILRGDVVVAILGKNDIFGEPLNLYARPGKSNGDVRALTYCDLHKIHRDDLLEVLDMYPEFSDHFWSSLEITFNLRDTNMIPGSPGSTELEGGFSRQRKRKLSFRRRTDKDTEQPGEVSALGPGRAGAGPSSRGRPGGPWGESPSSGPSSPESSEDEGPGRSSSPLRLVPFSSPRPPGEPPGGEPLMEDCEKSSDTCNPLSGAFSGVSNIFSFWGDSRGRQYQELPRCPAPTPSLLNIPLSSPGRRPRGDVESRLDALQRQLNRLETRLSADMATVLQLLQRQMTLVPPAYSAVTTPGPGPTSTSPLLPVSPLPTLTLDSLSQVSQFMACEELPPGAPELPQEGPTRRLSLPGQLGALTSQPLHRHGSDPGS

[11] = system: Plasma; test: as §1; details: 5 h
[12] = Cardiotoxicity in dog purkinje fiber assessed as change in resting membrane potential at 10 uM measured at basic cycle length of 2 seconds
[13] = Cardiotoxicity in dog purkinje fiber assessed as change in resting membrane potential at 10 uM measured at basic cycle length of 0.5 seconds
[14] = Cardiotoxicity in dog purkinje fiber assessed as change in action potential amplitude at 10 uM measured at basic cycle length of 2 seconds
[15] = Cardiotoxicity in dog purkinje fiber assessed as change in action potential duration at 90% at 10 uM measured at basic cycle length of 1 second
[16] = Cardiotoxicity in dog purkinje fiber assessed as change in resting membrane potential at 10 uM measured at basic cycle length of 1 second
[17] = Cardiotoxicity in dog purkinje fiber assessed as change in action potential amplitude at 10 uM measured at basic cycle length of 0.5 seconds
[18] = Cardiotoxicity in dog purkinje fiber assessed as change in action potential duration at 60% at 10 uM measured at basic cycle length of 0.5 seconds
[19] = Cardiotoxicity in dog purkinje fiber assessed as change in action potential amplitude at 10 uM measured at basic cycle length of 1 second
[20] = Cardiotoxicity in dog purkinje fiber assessed as change in action potential duration at 90% at 10 uM measured at basic cycle length of 0.5 seconds
[21] = Toxicity in rat administered for 7 days; details: in vivo
[22] = Cardiotoxicity in dog purkinje fiber assessed as change in action potential duration at 90% at 10 uM measured at basic cycle length of 2 seconds
[23] = Cardiotoxicity in dog purkinje fiber assessed as change in action potential duration at 60% at 10 uM measured at basic cycle length of 2 seconds
[24] = Cardiotoxicity in dog purkinje fiber assessed as change in action potential duration at 60% at 10 uM measured at basic cycle length of 1 second
[25] = target: Voltage-gated inwardly rectifying potassium channel KCNH2 (Homo sapiens, UniProt Q12809); test: Inhibition of human recombinant hERG expressed in CHO cells by automated patch clamp assay
Voltage-gated inwardly rectifying potassium channel KCNH2, sequence (Q12809 whole entry): as above

[26] = in vivo; details: dog, plasma
[27] = in vivo; details: dog, po, 12.5 umol/kg
Description: Oral bioavailability in dog at 12.5 umol/kg

[28] = Volume of distribution in dog at 5 umol/kg, iv; details: in vivo
[29] = in vivo; details: dog, po
[30] = Clearance in dog at 5 umol/kg, iv; details: in vivo
[31] = Half life in dog at 5 umol/kg, iv; details: in vivo

CONC(=O)N(Cc1ccsc1)C1CCN([C@H](C)CCNC(=O)c2c(C)cc(Cl)nc2C)CC1
IC50 [1]: 14.8 nM | inhibition [2]: inactive | inhibition [3]: inactive | inhibition [4]: inactive | inhibition [5]: inactive | inhibition [6]: inactive | inhibition [7]: inactive

Cc1cc(C#N)nc(C)c1C(=O)NCC[C@@H](C)N1CCC(N(Cc2ccsc2)C(=O)CC2CCOCC2)CC1
fraction unbound at 5 h [8]: 0.85 | CC50 [9]: > 36200 nM | IC50 [1]: 16.1 nM | inhibition at 10 µM [10]: 61%

COc1ccc(N(Cc2cnccc2C)C2CCN([C@H](C)CCNC(=O)c3c(C)ncnc3C)CC2)cc1
Fu [11]: 83% | CC50 [9]: > 38300 nM | IC50 [1]: 1830 nM | inhibition at 10 µM [10]: 58%

COCCONC(=O)N(Cc1ccsc1)C1CCN([C@H](C)CCNC(=O)c2c(C)cc(Cl)nc2C)CC1
Activity [12]: -2.7 mV | fraction unbound at 5 h [8]: 0.43 | Activity [13]: -3.6 mV | CC50 [9]: > 34400 nM | Activity [14]: 2.4 mV | IC50 [1]: 21.3 nM | inhibition [2]: inactive | Activity [15]: 16.5% | inhibition [3]: inactive | Activity [16]: -2.8 mV | Activity [17]: 1.2 mV | Activity [18]: 12.2% | inhibition [4]: inactive | Activity [19]: 1.3 mV | Activity [20]: 10.5% | NOAEL at 168 h [21]: ≥ 400 mg/kg | Activity [22]: 22.6% | inhibition [5]: inactive | inhibition [6]: inactive | inhibition [7]: inactive | Activity [23]: 24.2% | Activity [24]: 18.1%

Cc1cc(Cl)nc(C)c1C(=O)NCC[C@@H](C)N1CCC(N(Cc2ccsc2)C(=O)CC2CCOCC2)CC1
fraction unbound at 5 h [8]: 0.8 | CC50 [9]: > 35600 nM | IC50 [1]: 22.5 nM | inhibition at 10 µM [10]: 67%

COc1ccc(N(Cc2ccsc2)C2CCN([C@H](C)CCNC(=O)c3c(C)ncnc3C)CC2)cc1
fraction unbound at 5 h [8]: 0.91 | CC50 [9]: > 38700 nM | IC50 [1]: 65.9 nM | inhibition at 10 µM [10]: 97%

COCC(=O)N(Cc1ccsc1)C1CCN([C@H](C)CCNC(=O)c2c(C)cc(Cl)nc2C)CC1
IC50 [1]: 38 nM | inhibition [2]: inactive | inhibition [3]: inactive | inhibition [4]: inactive | inhibition [5]: inactive | inhibition [6]: inactive | inhibition [7]: inactive

CC(=O)N(Cc1ccsc1)C1CCN([C@H](C)CCNC(=O)c2c(C)cc(Cl)nc2C)CC1
IC50 [1]: 138 nM

CNC(=O)N(Cc1ccsc1)C1CCN([C@H](C)CCNC(=O)c2c(C)cc(Cl)nc2C)CC1
fraction unbound at 5 h [8]: 0.46 | CC50 [9]: > 40600 nM | IC50 [1]: 15.5 nM | IC50 [25]: 1600 nM | inhibition at 10 µM [10]: 73%

Cc1cc(Cl)nc(C)c1C(=O)NCC[C@@H](C)N1CCC(N(Cc2ccsc2)C(=O)Nc2cccnc2)CC1
fraction unbound at 5 h [8]: 0.46 | CC50 [9]: > 32400 nM | IC50 [1]: 34.4 nM | inhibition at 10 µM [10]: 20%

Cc1cc(Cl)nc(C)c1C(=O)NCC[C@@H](C)N1CCC(N(Cc2ccsc2)C(=O)NO)CC1
fraction unbound at 5 h [8]: 0.4 | CC50 [9]: > 38500 nM | IC50 [1]: 344 nM | inhibition at 10 µM [10]: 44%

CONC(=O)N(Cc1ccsc1)C1CCN([C@H](C)CCNC(=O)c2c(C)cc(C#N)nc2Cl)CC1
fraction unbound at 5 h [8]: 0.75 | AUC(0-inf) [26]: 3.24 µM·h | CC50 [9]: > 38500 nM | IC50 [1]: 2.9 nM | bioavailability [27]: 60% | Vd [28]: 6.3 L/kg | Cmax [29]: 1940 nM | clearance [30]: 39.2 mL/min/kg

CONC(=O)N(Cc1ccsc1)C1CCN([C@H](C)CCNC(=O)c2c(C)cc(C(=O)NC(C)C)nc2C)CC1
IC50 [1]: 4.8 nM | inhibition [2]: inactive | inhibition [3]: inactive | inhibition [4]: inactive | inhibition [5]: inactive | inhibition [6]: inactive | inhibition [7]: inactive

CONC(=O)N(Cc1ccsc1)C1CCN([C@H](C)CCNC(=O)c2c(C)cc(Cl)[n+]([O-])c2Cl)CC1
fraction unbound at 5 h [8]: 0.31 | AUC(0-inf) [26]: 0.37 µM·h | CC50 [9]: > 38500 nM | IC50 [1]: 7.3 nM | half-life [31]: 42 min | bioavailability [27]: 7% | Vd [28]: 2.6 L/kg | Cmax [29]: 260 nM | inhibition at 10 µM [10]: 21% | clearance [30]: 40.3 mL/min/kg
